Tested on: acetaminophen-induced acute hepatic failure
Conditions: 500 mg/kg APAP, ASAT after 12 hours
Procedure: In a second series of experiments, one group of mice was given a dose of 500 mg/kg of acetaminophen; a second group was given the same dose of acetaminophen, and a dose of 10 mg/kg of Mangafodipir administered 2 h before the acetaminophen; a third group of animals was given the same dose of acetaminophen, and a dose of 10 mg/kg of MnTBAP, and a fourth group of animals was given the same dose of acetaminophen, and a dose of 10 mg/kg of CuDIPS. The ASAT serum transaminases are assayed 12 hours after the administration of acetaminophen.

Substance: Manganese dipyridoxyl phosphate [Mangafodipir]
- transaminase activities, APAP500 alone relative to Mangafodipir pretreatment (10 mg/kg 2 h before): 10 times
- effect on transaminase activities (10 mg/kg): decreases the transaminase activities
